System: HCV 1b genotype
Assay: HCV Replicon assay (HCV-neo replicon cells, wild-type)
Type: cell-based
Settings: HCV 1b genotype replicon
Experimental: An HCV Replicon assay was utilized in the present disclosure, and was prepared, conducted and validated as described in commonly owned PCT/US2006/022197 and in O'Boyle et. al. Antimicrob Agents Chemother. 2005 April; 49 (4):1346-53. Assay methods incorporating luciferase reporters have also been used as described (Apath.com).
HCV-neo replicon cells and replicon cells containing mutations in the NS5A region were used to test the currently described family of compounds. The compounds were determined to have more than 10-fold less inhibitory activity on cells containing mutations than wild-type cells. Thus, the compounds of the present disclosure can be effective in inhibiting the function of the HCV NS5A protein and are understood to be as effective in combinations as previously described in application PCT/US2006/022197 and commonly owned WO/O4014852. Further, the compounds of the present disclosure can be effective against the HCV 1b genotype. It should also be understood that the compounds of the present disclosure can inhibit multiple genotypes of HCV. […] In one embodiment, compounds of the present disclosure are inhibitory versus 1a, 1b, 2a, 2b, 3a, 4a, and 5a genotypes.

[1] = Hepatitis C virus, class symbols
[2] = Hepatitis C virus, numeric values

In the case of CC(=O)N1CCC[C@H]1c1nc2ccc(C#Cc3ccc4[nH]c([C@@H]5CCCN5C(=O)c5ccccc5)nc4c3)cc2[nH]1 [Example M54.18, 5-((2-((2S)-1-acetyl-2-pyrrolidinyl)-1H-benzimidazol-6-yl)ethynyl)-2-((2S)-1-benzoyl-2-pyrrolidinyl)-1H-benzimidazole], the EC50 [1] is reported as 4.57 to 99 nM.

For O=C(Cc1ccccc1)N1CCCC[C@H]1c1nc2ccc(CCc3ccc4nc([C@@H]5CCCCN5C(=O)Cc5ccccc5)[nH]c4c3)cc2[nH]1 [Example F3, 5,5′-(1,2-ethanediyl)bis(2-((2S)-1-(phenylacetyl)-2-piperidinyl)-1H-benzimidazole)], the EC50 [1] was 100 to 999 nM.

In the case of CC(=O)N[C@@H](C(=O)N1CCC[C@H]1c1nc2cc(-c3cnc(-c4ccc5nc([C@@H]6CCCN6C(=O)[C@H](NC(C)=O)c6ccccc6)[nH]c5c4)o3)ccc2[nH]1)c1ccccc1 [Example J21, N-((1R)-2-((2S)-2-(5-(2-(2-((2S)-1-((2R)-2-acetamido-2-phenylacetyl)-2-pyrrolidinyl)-1H-benzimidazol-6-yl)-1,3-oxazol-5-yl)-1H-benzimidazol-2-yl)-1-pyrrolidinyl)-2-oxo-1-phenylethyl) acetamide], the EC50 [1] is reported as under 4.57 nM.

Work on Cn1cccc1C(=O)N1CCC[C@H]1c1nc2ccc(C#Cc3ccc4[nH]c([C@@H]5CCCN5C(=O)[C@H]5CCCO5)nc4c3)cc2[nH]1 [Example M54.6, 5-((2-((2S)-1-((1-methyl-1H-pyrrol-2-yl)carbonyl)-2-pyrrolidinyl)-1H-benzimidazol-6-yl)ethynyl)-2-((2S)-1-((2R)-tetrahydro-2-furanylcarbonyl)-2-pyrrolidinyl)-1H-benzimidazole] yielded an EC50 [1] of 4.57 to 99 nM.

Compound O=C(CC1CC1)N1CCC[C@H]1c1nc2cc(C#Cc3ccc4nc([C@@H]5CCCN5C(=O)CC5CC5)[nH]c4c3)ccc2[nH]1 [Example M8, 2-((2S)-1-(cyclopropylacetyl)-2-pyrrolidinyl)-5-((2-((2S)-1-(cyclopropylacetyl)-2-pyrrolidinyl)-1H-benzimidazol-6-yl)ethynyl)-1H-benzimidazole] has an EC50 [1] of 4.57 to 99 nM.

Compound O=C([C@H]1CCCO1)N1CCC[C@H]1c1nc2cc(C#Cc3ccc4[nH]c([C@@H]5CCCN5C(=O)[C@H]5CCCO5)nc4c3)ccc2[nH]1 [Example M5, 5,5′-(1,2-ethynediyl)bis(2-((2S)-1-((2R)-tetrahydro-2-furanylcarbonyl)-2-pyrrolidinyl)-1H-benzimidazole)] has an EC50 [2] of 10 nM.

O=C(Cc1ccccn1)N1CCC[C@H]1c1nc2cc(C#Cc3ccc4[nH]c([C@@H]5CCCN5C(=O)Cc5ccccn5)nc4c3)ccc2[nH]1 [Example M7, 5,5′-(1,2-ethynediyl)bis(2-((2S)-1-(2-pyridinylacetyl)-2-pyrrolidinyl)-1H-benzimidazole)] gave an EC50 (class symbols) of under 4.57 nM.

C[C@H](NC(=O)OCc1ccccc1)c1nc2cc(CCc3ccc4[nH]c([C@H](C)NC(=O)OCc5ccccc5)nc4c3)ccc2[nH]1 [OL1, benzyl((1S)-1-(5-(2-(2-((1)-1-(((benzyloxy)carbonyl)amino)ethyl)-1H-benzimidazol-6-yl)ethyl)-1H-benzimidazol-2-yl)ethyl)carbamate] showed an EC50 [1] of 4.57 to 99 nM.

For CC(=O)N1CCC[C@H]1c1nc2ccc(C#Cc3ccc4[nH]c([C@@H]5CCCN5C(=O)Cc5ccccc5)nc4c3)cc2[nH]1 [Example M54.16, 5-((2-((2S)-1-acetyl-2-pyrrolidinyl)-1H-benzimidazol-6-yl)ethynyl)-2-((2S)-1-(phenylacetyl)-2-pyrrolidinyl)-1H-benzimidazole], the EC50 [1] was 4.57 to 99 nM.

O=C([C@@H](O)c1ccccc1)N1CCC[C@H]1c1nc2cc(-c3ccc(-c4ccc5[nH]c([C@@H]6CCCN6C(=O)[C@@H](O)c6ccccc6)nc5c4)o3)ccc2[nH]1 [JG3, (1S,1′S)-2,2′-(2,5-furandiylbis(1H-benzimidazole-5,2-diyl(2S)-2,1-pyrrolidinediyl))bis(2-oxo-1-phenylethanol)] gave an EC50 [1] of 4.57 to 99 nM.

CC(=O)N1CCC[C@H]1c1nc2ccc(C#Cc3ccc4[nH]c([C@@H]5CCCN5C(=O)N5CCOCC5)nc4c3)cc2[nH]1 [Example M54.33, 5-((2-((2S)-1-acetyl-2-pyrrolidinyl)-1H-benzimidazol-6-yl)ethynyl)-2-((2S)-1-(4-morpholinyl-carbonyl)-2-pyrrolidinyl)-1H-benzimidazole] showed an EC50 [1] of 4.57 to 99 nM.

O=C(OCc1ccccc1)N1CCC[C@H]1c1nc2cc(C#Cc3ccc4[nH]c([C@@H]5CCCN5C(=O)[C@H]5CCCO5)nc4c3)ccc2[nH]1 [Example M54, benzyl (2S)-2-(5-((2-((2S)-1-((2R)-tetrahydro-2-furanylcarbonyl)-2-pyrrolidinyl)-1H-benzimidazol-5-yl)ethynyl)-1H-benzimidazol-2-yl)-1-pyrrolidine-carboxylate] was tested, and the EC50 [1] was under 4.57 nM.

In the case of O=C(CC1CC1)N1CCC[C@H]1c1nc2cc(CCc3ccc4nc([C@@H]5CCCN5C(=O)CC5CC5)[nH]c4c3)ccc2[nH]1 [Example M44, 2-((2S)-1-(cyclopropylacetyl)-2-pyrrolidinyl)-5-(2-(2-((2S)-1-(cyclopropylacetyl)-2-pyrrolidinyl)-1H-benzimidazol-6-yl)ethyl)-1H-benzimidazole], the EC50 [1] is reported as 100 to 999 nM.

CC(=O)N[C@@H](C(=O)N[C@@H](C)c1nc2cc(C#Cc3ccc4nc([C@H](C)NC(=O)[C@H](NC(C)=O)c5ccccc5)[nH]c4c3)ccc2[nH]1)c1ccccc1 [Example M30, (2R)-2-acetamido-N-((1S)-1-(5-((2-((1S)-1-(((2R)-2-acetamido-2-phenylacetyl)amino)ethyl)-1H-benzimidazol-6-yl)ethynyl)-1H-benzimidazol-2-yl)ethyl)-2-phenylacetamide] showed an EC50 [1] of under 4.57 nM.

Compound O=C(c1cccs1)N1CCC[C@H]1c1nc2cc(CCc3ccc4[nH]c([C@@H]5CCCN5C(=O)c5cccs5)nc4c3)ccc2[nH]1 [Example M45.1, 5,5′-(1,2-ethanediyl)bis(2-((2S)-1-(2-thienylcarbonyl)-2-pyrrolidinyl)-1H-benzimidazole)] has an EC50 [1] of 100 to 999 nM.

With COC(=O)N[C@H](C(=O)N1CCC[C@H]1c1nc2cc(C#Cc3ccc4[nH]c([C@@H]5CCCN5C(=O)[C@@H](NC(=O)OC)C(C)C)nc4c3)ccc2[nH]1)C(C)C [Example M24, methyl ((1S)-1-(((2S)-2-(5-((2-((2S)-1-((2S)-2-((methoxycarbonyl)amino)-3-methylbutanoyl)-2-pyrrolidinyl)-1H-benzimidazol-5-yl)ethynyl)-1H-benzimidazol-2-yl)-1-pyrrolidinyl)carbonyl)-2-methylpropyl)carbamate] the EC50 [1] was under 4.57 nM.

In the case of O=C(Cc1ccccc1)N1CCC[C@H]1c1nc2cc(-c3cnc(-c4ccc5nc([C@@H]6CCCN6C(=O)Cc6ccccc6)[nH]c5c4)o3)ccc2[nH]1 [Example J16], the EC50 [1] is reported as 4.57 to 99 nM.

Compound COC(=O)N[C@@H](C(=O)N1CCC[C@H]1c1nc2c(-c3ncc(-c4ccc5[nH]c([C@@H]6CCCN6C(=O)[C@@H](c6ccccc6)N6CCN(C)CC6)nc5c4)o3)cccc2[nH]1)c1ccccc1 [Example J30, methyl ((1R)-2-((2S)-2-(4-(5-(2-((2S)-1-((2R)-2-(4-methyl-1-piperazinyl)-2-phenylacetyl)-2-pyrrolidinyl)-1H-benzimidazol-5-yl)-1,3-oxazol-2-yl)-1H-benzimidazol-2-yl)-1-pyrrolidinyl)-2-oxo-1-phenylethyl) carbamate] has an EC50 [2] of 0.058 nM.

CC(=O)N[C@H](C(=O)N1CCC[C@H]1c1nc2cc(-c3cnc(-c4cccc5[nH]c([C@@H]6CCCN6C(=O)[C@@H](c6ccccc6)N(C)C)nc45)o3)ccc2[nH]1)c1ccccc1 [Example J11.2, N-((1S)-2-((2S)-2-(5-(2-(2-((2S)-1-((2R)-2-(dimethyl-amino)-2-phenylacetyl)-2-pyrrolidinyl)-1H-benzimidazol-4-yl)-1,3-oxazol-5-yl)-1H-benzimidazol-2-yl)-1-pyrrolidinyl)-2-oxo-1-phenylethyl) acetamide] was tested, and the EC50 [1] was under 4.57 nM.

Compound O=C(Cc1ccccc1)N1CCC[C@H]1c1nc2cc(-c3ccc4nc([C@@H]5CCCN5C(=O)Cc5ccccc5)[nH]c4c3)ccc2[nH]1 [Example M39, 2,2′-bis((2S)-1-(phenylacetyl)-2-pyrrolidinyl)-1H,1′H-5,5′-bibenzimidazole] has an EC50 [1] of 100 to 999 nM.

For COC(=O)N[C@H](C(=O)N1CCC[C@H]1c1nc2cc(C#CC#Cc3ccc4[nH]c([C@@H]5CCCN5C(=O)[C@@H](NC(=O)OC)C(C)C)nc4c3)ccc2[nH]1)C(C)C [Example M57.1, Methyl((1S)-1-(((2S)-2-(5-(4-(2-((2S)-1-((2S)-2-((methoxycarbonyl)amino)-3-methylbutanoyl)-2-pyrrolidinyl)-1H-benzimidazol-5-yl)-1,3-butadiyn-1-yl)-1H-benzimidazol-2-yl)-1-pyrrolidinyl)carbonyl)-2-methylpropyl)carbamate], the EC50 [1] was under 4.57 nM.

For CC(=O)N1CCC[C@H]1c1nc2c(-c3ncc(-c4ccc5[nH]c([C@@H]6CCCN6C(=O)[C@@H](c6ccccc6)N(C)C)nc5c4)o3)cccc2[nH]1 [Example J27, (1R)-2-((2S)-2-(5-(2-(2-((2S)-1-acetyl-2-pyrrolidinyl)-1H-benzimidazol-4-yl)-1,3-oxazol-5-yl)-1H-benzimidazol-2-yl)-1-pyrrolidinyl)-N,N-dimethyl-2-oxo-1-phenyl-ethanamine], the EC50 [1] was under 4.57 nM.

With O=C(Cc1cccnc1)N1CCC[C@H]1c1nc2cc(CCc3ccc4[nH]c([C@@H]5CCCN5C(=O)Cc5cccnc5)nc4c3)ccc2[nH]1 [Example M45.2, 5,5′-(1,2-ethanediyl)bis(2-((2S)-1-(3-pyridinylacetyl)-2-pyrrolidinyl)-1H-benzimidazole)] the EC50 [1] was 4.57 to 99 nM.
